ChEMBL document CHEMBL3352473, “Synthesis and evaluation of imidazole-4,5- and pyrazine-2,3-dicarboxamides targeting dengue and yellow fever virus” (Eur J Med Chem, 2014)

Assays:
[1] = Selectivity index, ratio of CC50 for green monkey Vero-B cells to EC50 for Yellow fever virus infected in green monkey Vero-B cells; format: toxicity, cell-based; settings: read-out: Ratio CC50/EC50
[2] = Selectivity index, ratio of CC50 for green monkey Vero-B cells to EC50 for Dengue virus infected in green monkey Vero-B cells; format: toxicity, cell-based; settings: read-out: Ratio CC50/EC50

Cc1ccc(NC(=O)c2nccnc2C(=O)NCc2ccccc2-c2ccncc2)cc1
selectivity ratio [1]: 1.7 | selectivity ratio [2]: 2.04

Cc1ccc(NC(=O)c2nccnc2C(=O)Nc2ccccc2-c2cccnc2)cc1
selectivity ratio [1]: 1 | selectivity ratio [2]: 8.8

Cc1ccc(NC(=O)c2nccnc2C(=O)Nc2ccccc2-c2ccncc2)cc1
selectivity ratio [1]: 10 | selectivity ratio [2]: 26

Cc1ccc(NC(=O)c2[nH]cnc2C(=O)Nc2ccc(C)cc2-c2ccsc2)cc1
selectivity ratio [1]: 1 | selectivity ratio [2]: 24.5

Cc1ccc(NC(=O)c2nccnc2C(=O)Nc2ccc(C)cc2-c2cccnc2)cc1
selectivity ratio [1]: 4.1 | selectivity ratio [2]: 4.5

O=C(NCc1ccccc1-c1ccncc1)c1nccnc1C(=O)Nc1ccc(F)cc1
selectivity ratio [2]: 2.9

O=C(Nc1ccc(F)cc1)c1nccnc1C(=O)Nc1ccccc1-c1cccnc1
selectivity ratio [1]: 2.5 | selectivity ratio [2]: 5.2

Cc1ccc(NC(=O)c2nccnc2C(=O)Nc2ccc(F)cc2)c(-c2cccnc2)c1
selectivity ratio [1]: 9 | selectivity ratio [2]: > 125

O=C(NCc1ccc(-c2ccsc2)cc1)c1nc[nH]c1C(=O)Nc1ccc(F)cc1
selectivity ratio [1]: 4.13 | selectivity ratio [2]: 0.6

O=C(NCc1ccc(-c2ccncc2)cc1)c1nccnc1C(=O)Nc1ccc(F)cc1
selectivity ratio [1]: 16 | selectivity ratio [2]: > 125

O=C(Nc1ccc(F)cc1)c1nccnc1C(=O)Nc1ccccc1-c1ccncc1
selectivity ratio [1]: 15 | selectivity ratio [2]: 10.4

Cc1ccc(NC(=O)c2nccnc2C(=O)Nc2ccc(C)cc2-c2ccncc2)cc1
selectivity ratio [1]: 3.8 | selectivity ratio [2]: 10

Cc1ccc(NC(=O)c2nc[nH]c2C(=O)Nc2ccccc2)c(-c2ccsc2)c1
selectivity ratio [1]: 13 | selectivity ratio [2]: 1

Cc1ccc(NC(=O)c2nc[nH]c2C(=O)Nc2ccc(F)cc2)c(-c2ccsc2)c1
selectivity ratio [1]: 1 | selectivity ratio [2]: 2.4

Cc1ccc(NC(=O)c2nc[nH]c2C(=O)Nc2ccc(F)cc2)c(-c2ccco2)c1
selectivity ratio [2]: 1

Cc1ccc(NC(=O)c2[nH]cnc2C(=O)Nc2ccc(C)cc2-c2ccco2)cc1
selectivity ratio [2]: 36.2

Cc1cc(-c2ccccc2NC(=O)c2nc[nH]c2C(=O)Nc2ccc(F)cc2)[nH]n1
selectivity ratio [1]: 67 | selectivity ratio [2]: 3.6

O=C(NCc1ccccc1-c1ccsc1)c1nc[nH]c1C(=O)Nc1ccc(F)cc1
selectivity ratio [1]: 13.2 | selectivity ratio [2]: 1.95

O=C(NCc1ccccc1-c1ccncc1)c1nc[nH]c1C(=O)Nc1ccc(F)cc1
selectivity ratio [1]: 31 | selectivity ratio [2]: 26

Cc1ccc(NC(=O)c2nc[nH]c2C(=O)Nc2ccc(F)cc2)c(-c2cc(C)n[nH]2)c1
selectivity ratio [1]: 34.5 | selectivity ratio [2]: 48

Cc1ccc(NC(=O)c2nccnc2C(=O)NCc2ccc(-c3ccncc3)cc2)cc1
selectivity ratio [1]: 3 | selectivity ratio [2]: 4.5

Cc1ccc(NC(=O)c2nccnc2C(=O)NCc2ccc(-c3cccnc3)cc2)cc1
selectivity ratio [1]: 1.7 | selectivity ratio [2]: 17.2

O=C(NCc1ccc(-c2cccnc2)cc1)c1nccnc1C(=O)Nc1ccc(F)cc1
selectivity ratio [1]: 13 | selectivity ratio [2]: 38.5

Cc1ccc(NC(=O)c2nc[nH]c2C(=O)NCCc2ccc(F)cc2)c(-c2ccco2)c1
selectivity ratio [2]: 30.9

Cc1ccc(NC(=O)c2nccnc2C(=O)Nc2ccc(F)cc2)c(-c2ccncc2)c1
selectivity ratio [1]: 2.6 | selectivity ratio [2]: 1

Cc1ccc(NC(=O)c2nc[nH]c2C(=O)NCc2ccccc2)c(-c2ccco2)c1
selectivity ratio [2]: 1

O=C(NCc1ccc(-c2cccnc2)cc1)c1nc[nH]c1C(=O)Nc1ccc(F)cc1
selectivity ratio [1]: 10 | selectivity ratio [2]: 2.85

O=C(NCc1ccc(-c2ccncc2)cc1)c1nc[nH]c1C(=O)Nc1ccc(F)cc1
selectivity ratio [1]: 1 | selectivity ratio [2]: 1

Cc1cnc(NC(=O)c2[nH]cnc2C(=O)Nc2ccccc2)c(-c2ccc(C)s2)c1
selectivity ratio [1]: 0.97 | selectivity ratio [2]: 0.22
